This is an account of results in patent US20220380801A1, “TRIPARTITE SYSTEMS FOR PROTEIN DIMERIZATION AND METHODS OF USE” (priority 2019, published 2022).

Test [1] has as its system MED18852 expression. Nature of the test: Transcriptional regulation assay, antibody (MED18852) expression. Format: cell-based, human. To be noted: DBD-PRSIM_23 (three tandem copies); 48 hours after simeprevir. The text has this:
The DNA sequence encoding MED18852 (SEQ ID NO: 237 and SEQ ID NO: 238, separated by an internal ribosome entry site (IRES) sequence) was purchased as a as a DNA string from GeneArt and cloned into the pZFHD1-2 vector (Takara) downstream of the ZFHD1 inducible promoter using Gibson assembly cloning. The nucleotide sequence of the final construct was confirmed by sequencing.
For the quantification of antibody expression (MED18852) utilising the transcriptional regulation assay, the cells were co-transfected with a pHet-Act1-2 plasmid (containing the HCV NS3/4A PR (S139A):PRSIM_23) and a pZFHD1 plasmid (encoding MED18852); 24 hours later wells were treated with different concentrations of simeprevir. Antibody concentration was determined in the supernatants 48 hours post the addition of simeprevir using MSD kit (Singleplex Human/NHP IgG Isotyping Kit (Mesoscale).

Test [2] concerns HCV NS3/4A PR (S139A):PRSIM_23. Nature of the test: HTRF complex formation with alternative HCV PR inhibitors. It counts as binding, Hepatitis C virus subtype 1a. To be noted: simeprevir substituted with alternative inhibitor. The method, then: (§1) scFv and Tn3 PRSIM binding molecules that were selective for the HCV NS3/4A PR (S139A) were identified in homogeneous time-resolved fluorescence (HTRF®) assays run in parallel to measure binding in the presence and absence of simeprevir. HCV NS3/4A PR (S139A), and serial dilutions of purified PRSIM binding molecules, were prepared in assay buffer (PBS containing 0.4 M potassium fluoride and 0.1% BSA). Streptavidin cryptate (Cisbio) was pre-mixed with either anti-FLAG XL665 (to detect the Tn3 molecules) or anti-c-myc XL665 (to detect the scFv molecules) in assay buffer. For each assay 2.5 μl of sample titration was added to 2.5 μl HCV NS3/4A PR (S139A) and 2.5 μl of pre-mixed detection reagents. Either 2.5 μl simeprevir or 2.5 μl of a DMSO blank were also added to each well. […] Assay plates were incubated overnight at 4° C., prior to reading the time resolved fluorescence at 620 nm and 665 nm emission wavelengths using a PerkinElmer Envision plate reader. Data was analysed by calculating % Delta F values for each sample. Delta F was determined according to equation 1.
(§2) There are several small molecule inhibitors that are known to bind the HCV NS3/4A protease and have been approved for human use. A panel of such small molecules were assessed for their ability to induce complex formation between HCV NS3/4A PR (S139A) and PRSIM_23 or PRSIM_57. […]
On the technique in general: Time-resolved FRET reads energy transfer from a long-lived donor to a nearby acceptor.

Test [3] relates to HCV NS3/4A PR (S139A):PRSIM_57. Described as above. Format: binding, Hepatitis C virus subtype 1a. To be noted: simeprevir substituted with alternative inhibitor. The method, then: as §1, §2
Test [4] has as its system HEK293 cells stably expressing the PRSIM-based kill switch. Nature of the test: Kill switch cell viability (phase contrast). It counts as cell-based, human. To be noted: 100 nM simeprevir. The method, then: Lentiviral particles encoding the kill switch fusion protein (SEQ ID NO: 223) or kill switch S196A mutant fusion protein (SEQ ID NO: 230) were generated using pPACKH1 HIV lentiviral packaging kit (Systems Bioscience), according to manufacturer's instructions. HEK293 cells were transduced for 24 h in the presence of 8 μg/ml polybrene after which cells were changed into fresh growth medium (DMEM+10% foetal bovine serum+1% Non-essential amino acids). 24 h later transduced cells were selected by addition of 2 μg/ml puromycin for 5 days. Before functional testing, transduced cell pools were FACS sorted based on GFP fluorescence to isolate high expressing cell line pools and single cell clones.
(§3) HEK293, HCT116 or HT29 cells stably expressing the PRSIM-based kill switch fusion protein (SEQ ID NO: 223) or HEK293 cells stably expressing the PRSIM kill switch S196A mutant fusion protein (SEQ ID NO: 230) were plated onto collagen-coated 96-well plates and 24 h later treated with 100 nM simeprevir. Phase contrast images were acquired at various timepoints using 10× or 20× objectives on an Incucyte Zoom (EssenBioscience).

Test [5] concerns HCT116 cells stably expressing the PRSIM-based kill switch. The experiment in a line: Kill switch cell viability (phase contrast). It counts as cell-based, human. To be noted: 100 nM simeprevir, wt kill switch. The method, then: (§4) HCT116 and HT29 transduced cells were generated following the same protocol with exception of using McCoy's 5A medium+10% foetal bovine serum as growth medium, supplemented with 2 μg/ml puromycin for selection of transduced cells.
as §3

The subject of test [6] is HT29 cells stably expressing the PRSIM-based kill switch. Nature of the test: Kill switch cell viability (phase contrast). Format: cell-based, human. The note with it: 100 nM simeprevir, wt kill switch. The method, then:
as §4, §3

As for `COc1ccc2c(O[C@@H]3C[C@H]4C(=O)N[C@]5(C(=O)NS(=O)(=O)C6CC6)C[C@H]5/C=C\CCCCN(C)C(=O)[C@@H]4C3)cc(-c3nc(C(C)C)cs3)nc2c1C` [simeprevir], the “expression of MED18852” value in test [1] is “dependent on the dose of simeprevir”. In addition, the “induction of complex formation” value in test [2] and in test [3] was “induction of complex formation was specific for simeprevir” each time. For the same compound, in test [4] (kill switch S196A), the cell killing result is recorded as “rapid cell killing in a timeframe comparable to the wt kill switch”. For the same compound, the cell death result in test [4] (wt kill switch), in test [5] and in test [6] was “rapid cell death” each time.
